# Patent US8536187B2 (Gilead Sciences, Inc., priority 2008, dated 2013)
# Legend:
# [1] = CC50 assay (CellTiter-Glo) in Huh-7 HCV replicon cells; format: cell-based; settings: human
# Procedure, shortened: (§1)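 Cytotoxicity (CC50) read by CellTiter-Glo luminescence after 10 min, and antiviral EC50 by luciferase signal after 30 min lysis with substrate, both at room temperature. Preceding step: 3-day exposure of 6000 Huh-7 HCV replicon cells per well to compound dilution series at 37° C, 5% CO2, in 0.5% DMSO.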
# [2] = tested on: HCV replicon in human hepatoma Huh-7 cell line; test: Anti-HCV replicon assay, EC50 (luciferase luminescence); format: cell-based; settings: Hepatitis C virus, Huh-7, 72 h
# Procedure, shortened: as §1
Structure (SMILES),"CC50 at 3 days ([1]; Table 2, 3 days incubation)",EC50 [2],"CC50 at 3 days ([1]; Table 1, 3 days incubation)"
"NS(=O)(=O)c1cc(Cl)cc(CNc2nc(NC3(C(F)(F)F)CC3)c3nc(-c4ccc(C(=O)NC5(C(F)(F)F)CC5)cc4)ccc3n2)c1 [Example 95, 3-chloro-5-((6-(4-(1-(trifluoromethyl)cyclopropyl-aminocarbonyl)phenyl)-4-(1-(trifluoromethyl)cyclopropyl-amino)pyrido[3,2-d]pyrimidin-2-ylamino)methyl)benzene-sulfonamide]",1 to 10 µM,< 100 nM,–
"CS(=O)(=O)c1cccc(-c2ccc3nc(NCc4ccc(-n5cncn5)nc4)nc(NCC(F)(F)F)c3n2)c1 [Example 184, N^2-((6-(1H-1,2,4-triazol-1-yl)pyridin-3-yl)methyl)-6-(3-(methylsulfonyl)phenyl)-N^4-(2,2,2-trifluoroethyl)pyrido [3,2-d]pyrimidine-2,4-diamine]",1 to 10 µM,< 100 nM,–
"C[C@@H](Nc1nc(OC2CC2)c2nc(-c3ccc(OC(F)F)c(S(C)(=O)=O)c3)ccc2n1)c1ccc(S(N)(=O)=O)cc1 [Example 185, 4-((R)-1-(4-cyclopropoxy-6-(4-(difluoromethoxy)-3-(methylsulfonyl)phenyl)pyrido [3,2-d]pyrimidin-2-ylamino)ethyl)benzenesulfonamide]",> 10 µM,100 to 250 nM,–
"C#Cc1ccc2nc(NCc3ccc(-n4cncn4)cc3)nc(N[C@@H](C)C(F)(F)F)c2n1 [Example 291, (S)-N^2-(4-(1H-1,2,4-triazol-1-yl)benzyl)-6-ethynyl-N^4-(1,1,1-trifluoropropan-2-yl)pyrido [3,2-d]pyrimidine-2,4-diamine]",> 10 µM,< 100 nM,–
"C[C@@H](Nc1nc(NC2(C(F)(F)F)CC2)c2nc(C#CC3CC3)ccc2n1)c1ccc(S(N)(=O)=O)cc1 [Example 69, (R)-4-(1-(6-(2-cyclopropylethynyl)-4-(1-(trifluoromethyl)cyclopropyl-amino)pyrido[3,2-d]pyrimidin-2-ylamino)ethyl)benzene-sulfonamide]",> 10 µM,< 100 nM,–
"Cc1nccn1-c1cccc(CNc2nc(NC3(C(F)(F)F)CC3)c3nc(-c4ccc(F)cc4)ccc3n2)c1 [Example 53, N^2-(3-(2-methyl-1H-imidazol-1-yl)benzyl)-6-(4-fluorophenyl)-N^4-(1-(trifluoromethyl)cyclopropyl)pyrido[3,2-d] pyrimidine-2,4-diamine]",1 to 10 µM,250 to 2000 nM,–
"COc1ccc(-c2ccc3nc(NCc4cccc(S(N)(=O)=O)c4)nc(NCC(F)(F)F)c3n2)cc1S(C)(=O)=O [Example 144, 3-((6-(4-methoxy-3-(methylsulfonyl)phenyl)-4-(2,2,2-trifluoroethylamino)pyrido[3,2-d]pyrimidin-2-ylamino)methyl)benzene-sulfonamide]",1 to 10 µM,< 100 nM,–
"NS(=O)(=O)c1cc(F)cc(CNc2nc(NC3(C(F)(F)F)CC3)c3nc(-c4ccc(F)nc4)ccc3n2)c1 [Example 77, 3-fluoro-5-((6-(6-fluoropyridin-3-yl)-4-(1-(trifluoromethyl)cyclopropylamino)pyrido[3,2-d]pyrimidin-2-ylamino)methyl) benzenesulfonamide]",> 10 µM,< 100 nM,–
"COc1ccc(-c2ccc3nc(NCc4ccc(F)c(F)c4)nc(NCC(F)(F)F)c3n2)cc1S(N)(=O)=O [Example 234, 5-(2-(3,4-difluorobenzylamino)-4-(2,2,2-trifluoroethylamino)pyrido[3,2-d]pyrimidin-6-yl)-2-methoxybenzenesulfonamide]",> 10 µM,< 100 nM,–
"CC(C)(C)NS(=O)(=O)c1cc(F)cc(CNc2nc(NC3(C(F)(F)F)CC3)c3nc(-c4ccc(Cl)c(S(C)(=O)=O)c4)ccc3n2)c1 [Example 38, N-tert-butyl-3-((6-(4-chloro-3-(methylsulfonyl)phenyl)-4-(1-(trifluoromethyl)cyclopropyl-amino)pyrido[3,2-d]pyrimidin-2-ylamino)methyl)-5-fluorobenzenesulfonamide]",> 10 µM,< 100 nM,–
"NS(=O)(=O)c1cc(Cl)cc(CNc2nc(NCC(F)(F)F)c3nc(C#CC4CC4)ccc3n2)c1 [Example 280, 3-chloro-5-((6-(2-cyclopropyl-ethynyl)-4-(2,2,2-trifluoro-ethylamino)pyrido[3,2-d]pyrimidin-2-ylamino)methyl) benzenesulfonamide]",> 10 µM,< 100 nM,–
"N#Cc1cc(F)ccc1-c1ccc2nc(NCc3cc(Cl)cc(S(N)(=O)=O)c3)nc(NC3(C(F)(F)F)CC3)c2n1 [Example 100, 3-chloro-5-((6-(2-cyano-4-fluorophenyl)-4-(1-(trifluoromethyl)cyclopropyl-amino)pyrido[3,2-d]pyrimidin-2-ylamino)methyl)benzene-sulfonamide]",1 to 10 µM,< 100 nM,–
"COc1ccc(-c2ccc3nc(NCc4ccc(S(N)(=O)=O)cc4)nc(NCC(F)(F)F)c3n2)cc1S(=O)(=O)N1CCOCC1 [Example 227, 4-((6-(4-methoxy-3-(morpholinosulfonyl)phenyl)-4-(2,2,2-trifluoroethylamino)pyrido[3,2-d]pyrimidin-2-ylamino)methyl)benzene-sulfonamide]",1 to 10 µM,< 100 nM,–
"CS(=O)(=O)c1cc(-c2ccc3nc(NCc4ccc(S(N)(=O)=O)cc4)nc(NCC(F)(F)F)c3n2)ccc1F [Example 21, 4-{[6-(4-Fluoro-3-methanesulfonyl-phenyl)-4-(2,2,2-trifluoro-ethylamino)-pyrido[3,2-d]pyrimidin-2-ylamino]-methyl}-benzenesulfonamide]",–,< 100 nM,> 25 µM
"CC1(Oc2nc(NCc3ccc(-n4cncn4)cc3)nc3ccc(-c4ccc(OC5CC5)nc4)nc23)CC1 [Example 247, N-(4-(1H-1,2,4-triazol-1-yl)benzyl)-6-(6-cyclopropoxy-pyridin-3-yl)-4-(1-methylcyclo-propoxy)pyrido[3,2-d]pyrimidin-2-amine]",1 to 10 µM,< 100 nM,–
"C[C@@H](Nc1nc(NC2(C(F)(F)F)CC2)c2nc(-c3cccc(S(C)(=O)=O)c3)ccc2n1)c1ccc(-n2cncn2)cc1 [Example 47, N^2-((R)-1-(4-(1H-1,2,4-triazol-1-yl)phenyl)ethyl)-6-(3-(methylsulfonyl)phenyl)-N^4-(1-(trifluoromethyl)cyclopropyl) pyrido[3,2-d]pyrimidine-2,4-diamine]",1 to 10 µM,< 100 nM,–
"CC(Cn1cncn1)Nc1nc(NC2(C(F)(F)F)CC2)c2nc(-c3ccc(NC4CC4)nc3)ccc2n1 (centres unmarked) [Example 114, N^2-(1-(1H-1,2,4-triazol-1-yl)propan-2-yl)-6-(6-(cyclopropylamino)pyridin-3-yl)-N^4-(1-(trifluoromethyl)cyclopropyl)pyrido[3,2-d] pyrimidine-2,4-diamine]",> 10 µM,< 100 nM,–
"COc1ccc(-c2ccc3nc(NCc4cccnc4)nc(NCC(F)(F)F)c3n2)cc1S(C)(=O)=O [Example 166, 6-(4-methoxy-3-(methylsulfonyl)phenyl)-N^2-(pyridin-3-ylmethyl)-N^4-(2,2,2-trifluoroethyl)pyrido [3,2-d]pyrimidine-2,4-diamine]",1 to 10 µM,< 100 nM,–
"CS(=O)(=O)c1cccc(-c2ccc3nc(NCc4cccc(S(N)(=O)=O)c4)nc(NCC(F)(F)F)c3n2)c1 [Example 14, 3-{[6-(3-Methanesulfonyl-phenyl)-4-(2,2,2-trifluoro-ethylamino)-pyrido[3,2-d]pyrimidin-2-ylamino]-methyl}-benzenesulfonamide]",–,< 100 nM,10 to 25 µM
"CS(=O)(=O)c1cc(-c2ccc3nc(NCc4ccc(-n5cncn5)cc4)nc(O[C@@H]4C[C@@H]5C[C@@H]5C4)c3n2)ccc1OC(F)F [Example 195, N-(4-(1H-1,2,4-triazol-1-yl)benzyl)-4-((1S,3r,5R)-bicyclo[3.1.0]hexan-3-yloxy)-6-(4-(difluoromethoxy)-3-(methylsulfonyl)phenyl)pyrido [3,2-d]pyrimidin-2-amine]",1 to 10 µM,< 100 nM,–
"Fc1ccc(-c2ccc3nc(NCc4cccc(-n5cncn5)c4)nc(NCC(F)(F)F)c3n2)cc1 [Example 1, 6-(4-Fluoro-phenyl)-N2-(3-[1,2,4]-triazol-1-yl-benzyl)-N4-(2,2,2-trifluoro-ethyl)-pyrido[3,2-d]pyrimidine-2,4-diamine]",–,100 to 250 nM,> 25 µM
"COc1ccc(-c2ccc3nc(NCc4cccc(S(C)(=O)=O)c4)nc(NCC(F)(F)F)c3n2)cc1S(C)(=O)=O [Example 177, N^2-(3-(methylsulfonyl)benzyl)-6-(4-methoxy-3-(methylsulfonyl)phenyl)-N^4-(2,2,2-trifluoroethyl) pyrido[3,2-d]pyrimidine-2,4-diamine]",1 to 10 µM,< 100 nM,–
"NS(=O)(=O)c1ccc(CNc2nc(NC3(C(F)(F)F)CC3)c3nc(-c4ccc(N5CCCS5(=O)=O)cc4)ccc3n2)cc1 [Example 130, 4-((6-(4-(1,1-dioxo-isothiazolidin-2-yl)phenyl)-4-(1-(trifluoromethyl)cyclopropyl-amino)pyrido[3,2-d]pyrimidin-2-ylamino)methyl)benzene-sulfonamide]",< 1 µM,< 100 nM,–
"CS(=O)(=O)c1cc(-c2ccc3nc(NCc4ccc(-n5cncn5)cc4)nc(OC4CC4)c3n2)ccc1OC(F)F [Example 192, N-(4-(1H-1,2,4-triazol-1-yl)benzyl)-4-cyclopropoxy-6-(4-(difluoromethoxy)-3-(methylsulfonyl)phenyl)pyrido [3,2-d]pyrimidin-2-amine]",1 to 10 µM,< 100 nM,–
"Cc1ccc(-c2ccc3nc(NCc4ccc(S(N)(=O)=O)cc4)nc(NCC(F)(F)F)c3n2)cc1S(C)(=O)=O [Example 143, 4-((6-(4-methyl-3-(methylsulfonyl)phenyl)-4-(2,2,2-trifluoroethylamino)pyrido[3,2-d]pyrimidin-2-ylamino)methyl)benzene-sulfonamide]",> 10 µM,< 100 nM,–
